Where “and” joins values, the source holds several entries; their conditions need not be identical. Identical values can stand only once.
Test system: T-47D spheroids with HUVEC/MSC, viability
Assay: Anticancer human tumor T-47D cell line growth inhibition [PI3K];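 also: spheroids exposed to agents for seven days before reading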;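 as to viability, T/C: percent of DMSO vehicle control luminescence so 100% = untreated growth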
Details: for viability, T/C: stronger effect = lower value; active = viability on the fitted dose curve at most 10% of control; inactive = the rest
In short: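 Spheroid viability read-out. Co-cultures contained the tumor line plus HUVEC and human MSCs. Each agent was paired with a PI3K inhibitor (inavolisib, alpelisib, duvelisib, copanlisib) across half-log dilutions starting at clinical Cmax, or at 10 microM when Cmax was unknown.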

[1] = curve of first compound, second compound 0.00316 µM
[2] = curve of first compound, second compound 0.01 µM
[3] = curve of first compound, second compound 0.0316 µM
[4] = curve of first compound, second compound 0.1 µM
[5] = curve of first compound, second compound 0.316 µM
[6] = curve of first compound, second compound 1 µM
[7] = second compound 0.00316 µM, first compound 0.0316 µM
[8] = second compound 0.00316 µM, first compound 0.1 µM
[9] = second compound 0.00316 µM, first compound 0.316 µM
[10] = second compound 0.00316 µM, first compound 1 µM
[11] = second compound 0.00316 µM, first compound 3.16 µM
[12] = second compound 0.00316 µM, first compound 10 µM
[13] = second compound 0.01 µM, first compound 0.0316 µM
[14] = second compound 0.01 µM, first compound 0.1 µM
[15] = second compound 0.01 µM, first compound 0.316 µM
[16] = second compound 0.01 µM, first compound 1 µM
[17] = second compound 0.01 µM, first compound 3.16 µM
[18] = second compound 0.01 µM, first compound 10 µM
[19] = second compound 0.0316 µM, first compound 0.0316 µM
[20] = second compound 0.0316 µM, first compound 0.1 µM
[21] = second compound 0.0316 µM, first compound 0.316 µM
[22] = second compound 0.0316 µM, first compound 1 µM
[23] = second compound 0.0316 µM, first compound 3.16 µM
[24] = second compound 0.0316 µM, first compound 10 µM
[25] = second compound 0.1 µM, first compound 0.0316 µM
[26] = second compound 0.1 µM, first compound 0.1 µM
[27] = second compound 0.1 µM, first compound 0.316 µM
[28] = second compound 0.1 µM, first compound 1 µM
[29] = second compound 0.1 µM, first compound 3.16 µM
[30] = second compound 0.1 µM, first compound 10 µM
[31] = second compound 0.316 µM, first compound 0.0316 µM
[32] = second compound 0.316 µM, first compound 0.1 µM
[33] = second compound 0.316 µM, first compound 0.316 µM
[34] = second compound 0.316 µM, first compound 1 µM
[35] = second compound 0.316 µM, first compound 3.16 µM
[36] = second compound 0.316 µM, first compound 10 µM
[37] = second compound 1 µM, first compound 0.0316 µM
[38] = second compound 1 µM, first compound 0.1 µM
[39] = second compound 1 µM, first compound 0.316 µM
[40] = second compound 1 µM, first compound 1 µM
[41] = second compound 1 µM, first compound 3.16 µM
[42] = second compound 1 µM, first compound 10 µM

C#Cc1c(F)ccc2cc(O)cc(-c3ncc4c(N5CC6CCC(C5)N6)nc(OCC56CCCN5CC(F)C6)nc4c3F)c12 (stereo not given) + CC(Nc1ccc2c(c1)OCCn1cc(N3C(=O)OCC3C(F)F)nc1-2)C(N)=O
> 10 µM: IC50 [1] | IC50 [2] | IC50 [3] | IC50 [4] | IC50 [5] | IC50 [6]
inactive: viability, T/C [7] 96.3% | viability, T/C [8] 85.3% | viability, T/C [9] 85.6% | viability, T/C [10] 78.3% | viability, T/C [11] 90.9% | viability, T/C [12] 84.1% | viability, T/C [13] 107% | viability, T/C [14] 82.3% | viability, T/C [15] 102% | viability, T/C [16] 100% | viability, T/C [17] 95.2% | viability, T/C [18] 92.9% | viability, T/C [19] 83.3% | viability, T/C [20] 77.8% | viability, T/C [21] 97.8% | viability, T/C [22] 79% | viability, T/C [23] 94.6% | viability, T/C [24] 89.1% | viability, T/C [25] 99.8% | viability, T/C [26] 83% | viability, T/C [27] 79% | viability, T/C [28] 88.6% | viability, T/C [29] 91.1% | viability, T/C [30] 81.4% | viability, T/C [31] 62.7% | viability, T/C [32] 70.7% | viability, T/C [33] 76.8% | viability, T/C [34] 59.9% | viability, T/C [35] 70.8% | viability, T/C [36] 61.3% | viability, T/C [37] 48.8% | viability, T/C [38] 55.3% | viability, T/C [39] 61.2% | viability, T/C [40] 43.7% | viability, T/C [41] 46.1% | viability, T/C [42] 62.5%

C=CC(=O)N1CCN(c2nc(=O)n(-c3c(C)ccnc3C(C)C)c3nc(-c4c(O)cccc4F)c(F)cc23)C(C)C1 (stereo not given) + CC(Nc1ccc2c(c1)OCCn1cc(N3C(=O)OCC3C(F)F)nc1-2)C(N)=O
> 10 µM: IC50 [1] | IC50 [2] | IC50 [3] | IC50 [4] | IC50 [5]
inactive: viability, T/C [7] 87.5% | viability, T/C [8] 103% | viability, T/C [9] 78.8% | viability, T/C [10] 86.3% | viability, T/C [11] 97.3% | viability, T/C [12] 113% | viability, T/C [13] 104% | viability, T/C [14] 67.8% | viability, T/C [15] 106% | viability, T/C [16] 84.8% | viability, T/C [17] 99.9% | viability, T/C [18] 92.1% | viability, T/C [19] 99% | viability, T/C [20] 84.8% | viability, T/C [21] 95.9% | viability, T/C [22] 98% | viability, T/C [23] 88.2% | viability, T/C [24] 88.3% | viability, T/C [25] 81.2% | viability, T/C [26] 83.6% | viability, T/C [27] 83.8% | viability, T/C [28] 98.5% | viability, T/C [29] 82.9% | viability, T/C [30] 96.8% | viability, T/C [31] 71.2% | viability, T/C [32] 73.3% | viability, T/C [33] 77% | viability, T/C [34] 74.5% | viability, T/C [35] 75.9% | viability, T/C [36] 79.2% | viability, T/C [37] 48.5% | viability, T/C [38] 47.2% | viability, T/C [39] 59% | viability, T/C [40] 54.2% | viability, T/C [41] 63.4% | viability, T/C [42] 67.2%
< 0.0316 µM: IC50 [6]

CC1(C)CCC(Nc2ncc(C(F)(F)F)c(-c3c[nH]c4c(P(C)(C)=O)c(C#N)ccc34)n2)CN1 (stereo not given)
> 10 µM: IC50 (curve of compound)
inactive: viability, T/C (compound 0.0316 µM) 66% (2×) and 68.7% and 70.4% | viability, T/C (compound 0.1 µM) 72% [middle of 4 runs] | viability, T/C (compound 0.316 µM) 69.9% [middle of 4 runs] | viability, T/C (compound 1 µM) 79.7% [middle of 4 runs] | viability, T/C (compound 3.16 µM) 79.9% [middle of 4 runs] | viability, T/C (compound 10 µM) 54.5% (2×) and 54.6% and 58.2%

CNC(=O)c1ccc(N2C(=S)N(c3ccc(C#N)c(C(F)(F)F)c3)C(=O)C2(C)C)cc1F
> 10 µM: IC50 (curve of compound)
inactive: viability, T/C (compound 0.0316 µM) 106% [middle of 4 runs] | viability, T/C (compound 0.1 µM) 95.9% [middle of 4 runs] | viability, T/C (compound 0.316 µM) 105% [middle of 4 runs] | viability, T/C (compound 1 µM) 108% [middle of 4 runs] | viability, T/C (compound 3.16 µM) 91.4% [middle of 4 runs] | viability, T/C (compound 10 µM) 89.3% [middle of 4 runs]

CCN1CCN(Cc2ccc(Nc3ncc(F)c(-c4cc(F)c5nc(C)n(C(C)C)c5c4)n3)nc2)CC1 + CC(Nc1ncnc2nc[nH]c12)c1cc2cccc(Cl)c2c(=O)n1-c1ccccc1
inactive: viability, T/C (second compound 0.0316 µM, first compound 0.00316 µM) 107% | viability, T/C (second compound 0.0316 µM, first compound 0.01 µM) 97.2% | viability, T/C [19] 91.7% | viability, T/C [20] 74.7% | viability, T/C [21] 95.7% | viability, T/C [22] 94.5% | viability, T/C (second compound 0.1 µM, first compound 0.00316 µM) 114% | viability, T/C (second compound 0.1 µM, first compound 0.01 µM) 87.1% | viability, T/C [25] 81.8% | viability, T/C [26] 96% | viability, T/C [27] 88.5% | viability, T/C [28] 92.3% | viability, T/C (second compound 0.316 µM, first compound 0.00316 µM) 103% | viability, T/C (second compound 0.316 µM, first compound 0.01 µM) 98.5% | viability, T/C [31] 82.6% | viability, T/C [32] 78.8% | viability, T/C [33] 93.6% | viability, T/C [34] 106% | viability, T/C (second compound 1 µM, first compound 0.00316 µM) 112% | viability, T/C (second compound 1 µM, first compound 0.01 µM) 93.2% | viability, T/C [37] 91% | viability, T/C [38] 84.1% | viability, T/C [39] 89.7% | viability, T/C [40] 106% | viability, T/C (second compound 3.16 µM, first compound 0.00316 µM) 93.5% | viability, T/C (second compound 3.16 µM, first compound 0.01 µM) 80.9% | viability, T/C (second compound 3.16 µM, first compound 0.0316 µM) 85.6% | viability, T/C (second compound 3.16 µM, first compound 0.1 µM) 77.2% | viability, T/C (second compound 3.16 µM, first compound 0.316 µM) 89.9% | viability, T/C (second compound 3.16 µM, first compound 1 µM) 85.9% | viability, T/C (second compound 10 µM, first compound 0.00316 µM) 77.7% | viability, T/C (second compound 10 µM, first compound 0.01 µM) 89.4% | viability, T/C (second compound 10 µM, first compound 0.0316 µM) 82.2% | viability, T/C (second compound 10 µM, first compound 0.1 µM) 72.8% | viability, T/C (second compound 10 µM, first compound 0.316 µM) 71.9% | viability, T/C (second compound 10 µM, first compound 1 µM) 82.1%
> 1 µM: IC50 [3] | IC50 [4] | IC50 [5] | IC50 [6] | IC50 (curve of first compound, second compound 3.16 µM) | IC50 (curve of first compound, second compound 10 µM)

From PubChem BioAssay AID1963959 (Molecular Pharmacology Branch, DTP, NCI, 2024)
